Calls of active or inactive are those of the source. No cut-off for these calls is given here.
Key:
[1] = test system: NCI-H157; test: Cytotoxicity against human NCI-H157 cells at 100 uM after 48 hrs by sulforhodamine B assay; format: functional
[2] = test system: NCI-H157; test: Cytotoxicity against human NCI-H157 cells at 10 uM after 48 hrs by sulforhodamine B assay; format: functional
[3] = test system: NCI-H157; test: Cytotoxicity against human NCI-H157 cells at 1 uM after 48 hrs by sulforhodamine B assay; format: functional
[4] = test system: NCI-H157; test: Cytotoxicity against human NCI-H157 cells at 0.1 uM after 48 hrs by sulforhodamine B assay; format: functional
[5] = test system: Leishmania major; test: Antileishmanial activity against Leishmania major promastigotes at 100 uM after 72 hrs by MTT assay relative to control; format: functional
[6] = test system: Leishmania major; test: Antileishmanial activity against Leishmania major promastigotes at 10 uM after 72 hrs by MTT assay relative to control; format: functional
[7] = test system: Leishmania major; test: Antileishmanial activity against Leishmania major promastigotes at 1 uM after 72 hrs by MTT assay relative to control; format: functional
[8] = test system: Leishmania major; test: Antileishmanial activity against Leishmania major promastigotes at 0.1 uM after 72 hrs by MTT assay relative to control; format: functional
[9] = test system: Klebsiella pneumoniae; test: Antibacterial activity against Klebsiella pneumoniae assessed as zone of inhibition after 24 to 48 hrs by well diffusion method; format: functional
[10] = test system: Streptococcus pyogenes; test: Antibacterial activity against Streptococcus pyogenes assessed as zone of inhibition after 24 to 48 hrs by well diffusion method; format: functional
[11] = test system: Staphylococcus epidermidis; test: Antibacterial activity against Staphylococcus epidermidis assessed as zone of inhibition after 24 to 48 hrs by well diffusion method; format: functional
[12] = test system: Staphylococcus aureus; test: Antibacterial activity against Staphylococcus aureus assessed as zone of inhibition after 24 to 48 hrs by well diffusion method; format: functional
[13] = test system: Serratia marcescens; test: Antibacterial activity against Serratia marcescens assessed as zone of inhibition after 24 to 48 hrs by well diffusion method; format: functional
[14] = test system: Pseudomonas aeruginosa; test: Antibacterial activity against Pseudomonas aeruginosa assessed as zone of inhibition after 24 to 48 hrs by well diffusion method; format: functional
[15] = test system: Escherichia coli; test: Antibacterial activity against Escherichia coli assessed as zone of inhibition after 24 to 48 hrs by well diffusion method; format: functional
[16] = test system: Klebsiella pneumoniae; test: Antibacterial activity against Klebsiella pneumoniae assessed as zone of inhibition by measuring activity index after 24 to 48 hrs by well diffusion method relative to penicillin G; format: functional, organism-based
[17] = test system: Streptococcus pyogenes; test: Antibacterial activity against Streptococcus pyogenes assessed as zone of inhibition by measuring activity index after 24 to 48 hrs by well diffusion method relative to tetracycline; format: functional, organism-based
[18] = test system: Streptococcus pyogenes; test: Antibacterial activity against Streptococcus pyogenes assessed as zone of inhibition by measuring activity index after 24 to 48 hrs by well diffusion method relative to penicillin G; format: functional, organism-based
[19] = test system: Streptococcus pyogenes; test: Antibacterial activity against Streptococcus pyogenes assessed as zone of inhibition by measuring activity index after 24 to 48 hrs by well diffusion method relative to ampicillin; format: functional, organism-based
[20] = test system: Streptococcus pyogenes; test: Antibacterial activity against Streptococcus pyogenes assessed as zone of inhibition by measuring activity index after 24 to 48 hrs by well diffusion method relative to amoxicillin; format: functional, organism-based
[21] = test system: Staphylococcus epidermidis; test: Antibacterial activity against Staphylococcus epidermidis assessed as zone of inhibition by measuring activity index after 24 to 48 hrs by well diffusion method relative to tetracycline; format: functional, organism-based
[22] = test system: Staphylococcus epidermidis; test: Antibacterial activity against Staphylococcus epidermidis assessed as zone of inhibition by measuring activity index after 24 to 48 hrs by well diffusion method relative to amoxicillin; format: functional, organism-based
[23] = test system: Staphylococcus aureus; test: Antibacterial activity against Staphylococcus aureus assessed as zone of inhibition by measuring activity index after 24 to 48 hrs by well diffusion method relative to tetracycline; format: functional, organism-based
[24] = test system: Staphylococcus aureus; test: Antibacterial activity against Staphylococcus aureus assessed as zone of inhibition by measuring activity index after 24 to 48 hrs by well diffusion method relative to penicillin G; format: functional, organism-based
[25] = test system: Staphylococcus aureus; test: Antibacterial activity against Staphylococcus aureus assessed as zone of inhibition by measuring activity index after 24 to 48 hrs by well diffusion method relative to ampicillin; format: functional, organism-based
[26] = test system: Staphylococcus aureus; test: Antibacterial activity against Staphylococcus aureus assessed as zone of inhibition by measuring activity index after 24 to 48 hrs by well diffusion method relative to amoxicillin; format: functional, organism-based
[27] = test system: Serratia marcescens; test: Antibacterial activity against Serratia marcescens assessed as zone of inhibition by measuring activity index after 24 to 48 hrs by well diffusion method relative to penicillin G; format: functional
[28] = test system: Serratia marcescens; test: Antibacterial activity against Serratia marcescens assessed as zone of inhibition by measuring activity index after 24 to 48 hrs by well diffusion method relative to ampicillin; format: functional
[29] = test system: Serratia marcescens; test: Antibacterial activity against Serratia marcescens assessed as zone of inhibition by measuring activity index after 24 to 48 hrs by well diffusion method relative to amoxicillin; format: functional
[30] = test system: Pseudomonas aeruginosa; test: Antibacterial activity against Pseudomonas aeruginosa assessed as zone of inhibition by measuring activity index after 24 to 48 hrs by well diffusion method relative to ampicillin; format: functional, organism-based
[31] = test system: Escherichia coli; test: Antibacterial activity against Escherichia coli assessed as zone of inhibition by measuring activity index after 24 to 48 hrs by well diffusion method relative to penicillin G; format: functional, organism-based
[32] = test system: Escherichia coli; test: Antibacterial activity against Escherichia coli assessed as zone of inhibition by measuring activity index after 24 to 48 hrs by well diffusion method relative to ampicillin; format: functional, organism-based
[33] = test system: Escherichia coli; test: Antibacterial activity against Escherichia coli assessed as zone of inhibition by measuring activity index after 24 to 48 hrs by well diffusion method relative to amoxicillin; format: functional, organism-based
[34] = test system: NCI-H157; test: Cytotoxicity against human NCI-H157 cells after 48 hrs by sulforhodamine B assay; format: functional, cell-based
[35] = test system: Pseudomonas aeruginosa; test: Antibacterial activity against Pseudomonas aeruginosa assessed as zone of inhibition by measuring activity index after 24 to 48 hrs by well diffusion method relative to tetracycline; format: functional, organism-based
[36] = test system: Pseudomonas aeruginosa; test: Antibacterial activity against Pseudomonas aeruginosa assessed as zone of inhibition by measuring activity index after 24 to 48 hrs by well diffusion method relative to penicillin G; format: functional, organism-based
[37] = test system: Pseudomonas aeruginosa; test: Antibacterial activity against Pseudomonas aeruginosa assessed as zone of inhibition by measuring activity index after 24 to 48 hrs by well diffusion method relative to amoxicillin; format: functional, organism-based
[38] = test system: Escherichia coli; test: Antibacterial activity against Escherichia coli assessed as zone of inhibition by measuring activity index after 24 to 48 hrs by well diffusion method relative to tetracycline; format: functional
[39] = test system: DNA; test: Binding affinity to single-stranded DNA (unknown origin) after 10 mins by UV-visible spectrometric method; format: nucleic-acid assay
[40] = test system: DNA; test: Binding affinity to single-stranded DNA (unknown origin) assessed as red shift up to 72 uM after 10 mins by UV-visible spectrometric method; format: nucleic-acid assay
[41] = test system: Klebsiella pneumoniae; test: Antibacterial activity against Klebsiella pneumoniae assessed as zone of inhibition by measuring activity index after 24 to 48 hrs by well diffusion method relative to tetracycline; format: functional, organism-based
[42] = test system: Klebsiella pneumoniae; test: Antibacterial activity against Klebsiella pneumoniae assessed as zone of inhibition by measuring activity index after 24 to 48 hrs by well diffusion method relative to ampicillin; format: functional, organism-based
[43] = test system: Klebsiella pneumoniae; test: Antibacterial activity against Klebsiella pneumoniae assessed as zone of inhibition by measuring activity index after 24 to 48 hrs by well diffusion method relative to amoxicillin; format: functional, organism-based

Divinylstannanediyl bis 2-(4-methoxy-2-nitrophenylcarbamoyl)benzoate
Activity [1]: 64.3% | Activity [2]: 61% | Activity [3]: 58.3% | Activity [4]: 55.4% | Activity [5]: 60.9% | Activity [6]: 55.4% | Activity [7]: 48.8% | Activity [8]: 43.3% | inhibition zone (IZ) [9]: inactive | inhibition zone (IZ) [10]: inactive | inhibition zone (IZ) [11]: 14.2 mm | inhibition zone (IZ) [12]: inactive | inhibition zone (IZ) [13]: 11 mm | inhibition zone (IZ) [14]: inactive | inhibition zone (IZ) [15]: inactive | Activity_index [16]: inactive | Activity_index [17]: inactive | Activity_index [18]: inactive | Activity_index [19]: inactive | Activity_index [20]: inactive | Activity index [21]: 1.42 | Activity index [22]: 7.11 | Activity_index [23]: inactive | Activity_index [24]: inactive | Activity_index [25]: inactive | Activity_index [26]: inactive | Activity index [27]: 1.37 | Activity index [28]: 1.37 | Activity index [29]: 1.84 | Activity_index [30]: inactive | Activity_index [31]: inactive | Activity_index [32]: inactive | Activity_index [33]: inactive | Activity [34]: Dose-dependent effect

(2,2'-Bipyridine) trimethylstannyl 2-(4-methoxy-2-nitrophenylcarbamoyl)benzoate
Activity [1]: 63.2% | Activity [2]: 59.9% | Activity [3]: 57.8% | Activity [4]: 56.7% | Activity [5]: 56.6% | Activity [6]: 50.9% | Activity [7]: 44.3% | Activity [8]: 39.2% | inhibition zone (IZ) [9]: inactive | inhibition zone (IZ) [10]: inactive | inhibition zone (IZ) [11]: 23.3 mm | inhibition zone (IZ) [12]: 19.3 mm | inhibition zone (IZ) [13]: 19.3 mm | inhibition zone (IZ) [14]: 20.3 mm | inhibition zone (IZ) [15]: 17.7 mm | Activity_index [16]: inactive | Activity_index [17]: inactive | Activity_index [18]: inactive | Activity_index [19]: inactive | Activity_index [20]: inactive | Activity index [21]: 2.33 | Activity index [22]: 11.7 | Activity index [27]: 2.42 | Activity index [28]: 2.42 | Activity index [29]: 3.22 | Activity index [35]: 3.39 | Activity index [36]: 3.39 | Activity index [37]: 3.39 | Activity index [38]: 8.83 | K [39]: 1.2 ×10⁴ /M | Activity [34]: Dose-dependent effect | Activity [40]: < 3 nm

(2,9-Dimethyl-1,10-Phenanthroline) trimethylstannyl 2-(4-methoxy-2-nitrophenylcarbamo-yl)benzoate
Activity [1]: 52.8% | Activity [2]: 50.3% | Activity [3]: 48.6% | Activity [4]: 45.5% | Activity [5]: 62.1% | Activity [6]: 59.5% | Activity [7]: 56.7% | Activity [8]: 52.1% | inhibition zone (IZ) [9]: inactive | inhibition zone (IZ) [10]: 5 mm | inhibition zone (IZ) [11]: 16 mm | inhibition zone (IZ) [12]: inactive | inhibition zone (IZ) [13]: 15.7 mm | inhibition zone (IZ) [14]: 23 mm | inhibition zone (IZ) [15]: 1.53 mm | Activity_index [16]: inactive | Activity index [21]: 1.6 | Activity index [22]: 8 | Activity_index [23]: inactive | Activity_index [24]: inactive | Activity_index [25]: inactive | Activity_index [26]: inactive | Activity index [27]: 1.96 | Activity index [28]: 1.96 | Activity index [29]: 2.61 | Activity index [35]: 3.84 | Activity index [36]: 3.84 | Activity index [37]: 3.84 | Activity index [38]: 0.77 | K [39]: 2 ×10⁴ /M | Activity [34]: Dose-dependent effect | Activity [40]: < 3 nm

Dioctylstannanediyl bis 2-(4-methoxy-2-nitrophenylcarbamoyl)benzoate
Activity [1]: 63.7% | Activity [2]: 59.1% | Activity [3]: 54.3% | Activity [4]: 48.9% | Activity [5]: 58.8% | Activity [6]: 55.2% | Activity [7]: 47.1% | Activity [8]: 42.9% | inhibition zone (IZ) [9]: 22.3 mm | inhibition zone (IZ) [10]: 12 mm | inhibition zone (IZ) [11]: 11.3 mm | inhibition zone (IZ) [12]: inactive | inhibition zone (IZ) [13]: 5 mm | inhibition zone (IZ) [14]: inactive | inhibition zone (IZ) [15]: inactive | Activity index [41]: 1.59 | Activity index [42]: 3.72 | Activity index [43]: 3.72 | Activity index [21]: 1.13 | Activity index [22]: 5.67 | Activity_index [23]: inactive | Activity_index [24]: inactive | Activity_index [25]: inactive | Activity_index [26]: inactive | Activity index [27]: 0.63 | Activity index [28]: 0.63 | Activity index [29]: 0.84 | Activity_index [30]: inactive | Activity_index [31]: inactive | Activity_index [32]: inactive | Activity_index [33]: inactive | Activity [34]: Dose-dependent effect

Tributylstannyl 2-(4-methoxy-2-nitrophenylcarbamoyl)benzoate
Activity [1]: 38.2% | Activity [2]: 37.7% | Activity [3]: 35.6% | Activity [4]: 32.1% | Activity [5]: 66.9% | Activity [6]: 63.3% | Activity [7]: 57.4% | Activity [8]: 52.6% | inhibition zone (IZ) [9]: 15 mm | inhibition zone (IZ) [10]: inactive | inhibition zone (IZ) [11]: 16 mm | inhibition zone (IZ) [12]: inactive | inhibition zone (IZ) [13]: 12.7 mm | inhibition zone (IZ) [14]: 15.7 mm | inhibition zone (IZ) [15]: 1.56 mm | Activity index [41]: 1.07 | Activity index [42]: 2.5 | Activity index [43]: 2.5 | Activity_index [17]: inactive | Activity_index [18]: inactive | Activity_index [19]: inactive | Activity_index [20]: inactive | Activity index [21]: 1.6 | Activity index [22]: 8 | Activity_index [23]: inactive | Activity_index [24]: inactive | Activity_index [25]: inactive | Activity_index [26]: inactive | Activity index [27]: 1.58 | Activity index [28]: 1.58 | Activity index [29]: 2.11 | Activity index [35]: 2.61 | Activity index [36]: 2.61 | Activity index [37]: 2.61 | Activity index [38]: 0.78 | K [39]: 7.6 ×10³ /M | Activity [34]: Dose-dependent effect | Activity [40]: < 3 nm
